Data published in US4396613A, “23-Ester derivatives of DMT and method of using same” (Eli Lilly and Company, priority 1981, dated 1983).
In brackets after ≈: the same amount, converted by molar mass.

What was measured:
Format in all cases: cell-based
[1] = tested on: Staphylococcus aureus V41; assay: standard agar-dilution assay (MIC); conditions: Staphylococcus aureus V41, penicillin-resistant strain, unit assumed
Protocol: (§1) The MIC's in Table II were determined by standard agar-dilution assays. The MIC's in Table III were obtained using a conventional broth-dilution microtiter test.
^b Penicillinresistant strain

[2] = tested on: Staphylococcus aureus X400; assay: standard agar-dilution assay (MIC); conditions: Staphylococcus aureus X400, methicillin-resistant strain, unit assumed
Protocol: as §1
^c Methicillinresistant-strain

[3] = tested on: Haemophilus influenzae Holt; assay: standard agar-dilution assay (MIC); conditions: ampicillin-sensitive strain, unit assumed
Protocol: as §1

[4] = tested on: Haemophilus influenzae R252; assay: standard agar-dilution assay (MIC); conditions: Haemophilus influenzae R252, ampicillin-resistant strain, unit assumed
Protocol: as §1

[5] = tested on: Staphylococcus aureus S13E; assay: standard agar-dilution assay (MIC); conditions: unit assumed
Protocol: as §1

[6] = tested on: Staphylococcus aureus X1.1; assay: standard agar-dilution assay (MIC); conditions: unit assumed
Protocol: as §1

[7] = tested on: Staphylococcus epidermidis EPI1; assay: standard agar-dilution assay (MIC); conditions: unit assumed
Protocol: as §1

[8] = tested on: Staphylococcus epidermidis EPI2; assay: standard agar-dilution assay (MIC); conditions: unit assumed
Protocol: as §1

Streptococcus Group 9960 = assay: standard agar-dilution assay (MIC); conditions: unit assumed
Protocol: as §1

[9] = tested on: Streptococcus Group D X66; assay: standard agar-dilution assay (MIC); conditions: unit assumed
Protocol: as §1

[10] = tested on: Streptococcus pyogenes C203; assay: standard agar-dilution assay (MIC); conditions: unit assumed
Protocol: as §1

[11] = tested on: Streptococcus pneumoniae Park I; conditions: agar dilution, unit assumed
Protocol: as §1

Mycoplasma gallisepticum = assay: conventional broth-dilution microtiter test (MIC); conditions: unit assumed
Protocol: as §1

Mycoplasma hyorhinis = assay: conventional broth-dilution microtiter test (MIC); conditions: unit assumed
Protocol: as §1

Mycoplasma synoviae = assay: conventional broth-dilution microtiter test (MIC); conditions: unit assumed
Protocol: as §1

[12] = tested on: Pasteurella multocida 17E; assay: conventional broth-dilution microtiter test (MIC); conditions: bovine isolate, unit assumed
Protocol: as §1

[13] = tested on: Pasteurella multocida 60A; assay: conventional broth-dilution microtiter test (MIC); conditions: avian isolate, unit assumed
Protocol: as §1

Staphylococcus aureus = assay: conventional broth-dilution microtiter test (MIC); conditions: unit assumed
Protocol: as §1

Streptococcus sp. 80 = assay: conventional broth-dilution microtiter test (MIC); conditions: unit assumed
Protocol: as §1

SMILES | MIC [1] | MIC [2] | MIC [3] | MIC [4] | MIC [5] | MIC [6] | MIC [7] | MIC [8] | MIC (Streptococcus Group 9960) | MIC [9] | MIC [10] | MIC [11] | MIC (Mycoplasma gallisepticum) | MIC (Mycoplasma hyorhinis) | MIC (Mycoplasma synoviae) | MIC [12] | MIC [13] | MIC (Staphylococcus aureus) | MIC (Streptococcus sp. 80)
CCC1OC(=O)CC(O)C(C)C(OC2OC(C)C(OC3CC(C)(O)C(O)C(C)O3)C(N(C)C)C2O)C(CC=O)CC(C)C(=O)C=CC(C)=CC1COC(=O)NCCCCCCCCN (stereo not shown) [Compound 27] | 2 mg/L (≈ 2.19 µM) | 8 mg/L (≈ 8.77 µM) | 32 mg/L (≈ 35.1 µM) | 32 mg/L (≈ 35.1 µM) | 4 mg/L (≈ 4.39 µM) | 2 mg/L (≈ 2.19 µM) | 2 mg/L (≈ 2.19 µM) | 4 mg/L (≈ 4.39 µM) | 4 mg/L (≈ 4.39 µM) | 4 mg/L (≈ 4.39 µM) | 1 mg/L (≈ 1.1 µM) | 0.25 mg/L (≈ 0.274 µM) | 0.78 mg/L (≈ 0.855 µM) | 3.12 mg/L (≈ 3.42 µM) | 3.12 mg/L (≈ 3.42 µM) | 25 mg/L (≈ 27.4 µM) | 50 mg/L (≈ 54.8 µM) | 6.25 mg/L (≈ 6.85 µM) | 0.78 mg/L (≈ 0.855 µM)
CCC1OC(=O)CC(O)C(C)C(OC2OC(C)C(OC3CC(C)(O)C(O)C(C)O3)C(N(C)C)C2OC(C)=O)C(CC=O)CC(C)C(=O)C=CC(C)=CC1COC(=O)C12CC3CC(CC(C3)C1)C2 (stereo not shown) [Compound 23] | 2 mg/L (≈ 2.11 µM) | 2 mg/L (≈ 2.11 µM) | > 128 mg/L | > 128 mg/L | 2 mg/L (≈ 2.11 µM) | 2 mg/L (≈ 2.11 µM) | 2 mg/L (≈ 2.11 µM) | 4 mg/L (≈ 4.23 µM) | 4 mg/L (≈ 4.23 µM) | 4 mg/L (≈ 4.23 µM) | 2 mg/L (≈ 2.11 µM) | 1 mg/L (≈ 1.06 µM) | 6.25 mg/L (≈ 6.61 µM) | 25 mg/L (≈ 26.4 µM) | 1.56 mg/L (≈ 1.65 µM) | 50 mg/L (≈ 52.8 µM) | > 50 mg/L | 6.25 mg/L (≈ 6.61 µM) | < 0.78 mg/L
CCC1OC(=O)CC(O)C(C)C(OC2OC(C)C(OC3CC(C)(O)C(O)C(C)O3)C(N(C)C)C2O)C(CC=O)CC(C)C(=O)C=CC(C)=CC1COC(=O)NCCN1CCOCC1 (stereo not shown) [Compound 29] | 1 mg/L (≈ 1.11 µM) | 4 mg/L (≈ 4.45 µM) | 16 mg/L (≈ 17.8 µM) | 16 mg/L (≈ 17.8 µM) | 2 mg/L (≈ 2.23 µM) | 1 mg/L (≈ 1.11 µM) | 1 mg/L (≈ 1.11 µM) | 2 mg/L (≈ 2.23 µM) | 2 mg/L (≈ 2.23 µM) | 2 mg/L (≈ 2.23 µM) | 0.5 mg/L (≈ 0.557 µM) | 0.125 mg/L (≈ 0.139 µM) | 0.39 mg/L (≈ 0.434 µM) | 6.25 mg/L (≈ 6.96 µM) | 1.56 mg/L (≈ 1.74 µM) | 12.5 mg/L (≈ 13.9 µM) | 25 mg/L (≈ 27.8 µM) | 1.56 mg/L (≈ 1.74 µM) | 0.78 mg/L (≈ 0.868 µM)
CCC1OC(=O)CC(O)C(C)C(OC2OC(C)C(OC3CC(C)(O)C(O)C(C)O3)C(N(C)C)C2O)C(CC=O)CC(C)C(=O)C=CC(C)=CC1COC(=O)NCCCO (stereo not shown) [Compound 26] | 2 mg/L (≈ 2.37 µM) | 4 mg/L (≈ 4.74 µM) | 16 mg/L (≈ 19 µM) | – | 4 mg/L (≈ 4.74 µM) | 1 mg/L (≈ 1.19 µM) | 1 mg/L (≈ 1.19 µM) | 2 mg/L (≈ 2.37 µM) | 2 mg/L (≈ 2.37 µM) | 2 mg/L (≈ 2.37 µM) | 0.25 mg/L (≈ 0.297 µM) | 0.125 mg/L (≈ 0.148 µM) | 0.78 mg/L (≈ 0.925 µM) | 6.25 mg/L (≈ 7.41 µM) | 0.39 mg/L (≈ 0.463 µM) | 6.25 mg/L (≈ 7.41 µM) | 12.5 mg/L (≈ 14.8 µM) | 1.56 mg/L (≈ 1.85 µM) | 0.39 mg/L (≈ 0.463 µM)
CCC1OC(=O)CC(O)C(C)C(OC2OC(C)C(OC3CC(C)(O)C(O)C(C)O3)C(N(C)C)C2OC(=O)Cc2ccccc2)C(CC=O)CC(C)C(=O)C=CC(C)=CC1COC(=O)Cc1ccccc1 (stereo not shown) [Compound 17] | 1 mg/L (≈ 1.02 µM) | 2 mg/L (≈ 2.04 µM) | > 128 mg/L | > 128 mg/L | 1 mg/L (≈ 1.02 µM) | 1 mg/L (≈ 1.02 µM) | 1 mg/L (≈ 1.02 µM) | 1 mg/L (≈ 1.02 µM) | 1 mg/L (≈ 1.02 µM) | 1 mg/L (≈ 1.02 µM) | 0.5 mg/L (≈ 0.511 µM) | 0.125 mg/L (≈ 0.128 µM) | 0.78 mg/L (≈ 0.797 µM) | 6.25 mg/L (≈ 6.39 µM) | 1.56 mg/L (≈ 1.59 µM) | 6.25 mg/L (≈ 6.39 µM) | 25 mg/L (≈ 25.6 µM) | 0.78 mg/L (≈ 0.797 µM) | 0.78 mg/L (≈ 0.797 µM)
CCC1OC(=O)CC(O)C(C)C(OC2OC(C)C(OC3CC(C)(O)C(O)C(C)O3)C(N(C)C)C2OC(C)=O)C(CC=O)CC(C)C(=O)C=CC(C)=CC1COC(=O)CCCCc1ccccc1 (stereo not shown) [Compound 18] | 2 mg/L (≈ 2.12 µM) | 2 mg/L (≈ 2.12 µM) | > 128 mg/L | > 128 mg/L | 1 mg/L (≈ 1.06 µM) | 1 mg/L (≈ 1.06 µM) | 1 mg/L (≈ 1.06 µM) | 2 mg/L (≈ 2.12 µM) | 1 mg/L (≈ 1.06 µM) | 2 mg/L (≈ 2.12 µM) | 0.5 mg/L (≈ 0.53 µM) | 0.125 mg/L (≈ 0.132 µM) | < 0.05 mg/L | 12.5 mg/L (≈ 13.2 µM) | 6.25 mg/L (≈ 6.62 µM) | 50 mg/L (≈ 53 µM) | > 50 mg/L | 1.56 mg/L (≈ 1.65 µM) | 0.78 mg/L (≈ 0.826 µM)
CCCCCCCC(=O)OCC1C=C(C)C=CC(=O)C(C)CC(CC=O)C(OC2OC(C)C(OC3CC(C)(O)C(O)C(C)O3)C(N(C)C)C2OC(C)=O)C(C)C(O)CC(=O)OC1CC (stereo not shown) [Compound 7] | 2 mg/L (≈ 2.2 µM) | 4 mg/L (≈ 4.39 µM) | – | – | 2 mg/L (≈ 2.2 µM) | 2 mg/L (≈ 2.2 µM) | 2 mg/L (≈ 2.2 µM) | 4 mg/L (≈ 4.39 µM) | 2 mg/L (≈ 2.2 µM) | 2 mg/L (≈ 2.2 µM) | 0.5 mg/L (≈ 0.549 µM) | 0.5 mg/L (≈ 0.549 µM) | 1.56 mg/L (≈ 1.71 µM) | 6.25 mg/L (≈ 6.87 µM) | 12.5 mg/L (≈ 13.7 µM) | > 50 mg/L | > 50 mg/L | 1.56 mg/L (≈ 1.71 µM) | 1.56 mg/L (≈ 1.71 µM)
CCC(=O)OCC1C=C(C)C=CC(=O)C(C)CC(CC=O)C(OC2OC(C)C(OC3CC(C)(O)C(O)C(C)O3)C(N(C)C)C2OC(C)=O)C(C)C(O)CC(=O)OC1CC (stereo not shown) [Compound 5, 2'-O-Acetyl-23-O-propionyl DMT] | 0.5 mg/L (≈ 0.595 µM) | 1 mg/L (≈ 1.19 µM) | 16 mg/L (≈ 19 µM) | 32 mg/L (≈ 38.1 µM) | 1 mg/L (≈ 1.19 µM) | 0.5 mg/L (≈ 0.595 µM) | 1 mg/L (≈ 1.19 µM) | 1 mg/L (≈ 1.19 µM) | 1 mg/L (≈ 1.19 µM) | 1 mg/L (≈ 1.19 µM) | 0.5 mg/L (≈ 0.595 µM) | 0.5 mg/L (≈ 0.595 µM) | ≤ 0.024 mg/L | 1.56 mg/L (≈ 1.86 µM) | 0.097 mg/L (≈ 0.115 µM) | 6.25 mg/L (≈ 7.44 µM) | 12.5 mg/L (≈ 14.9 µM) | – | ≤ 0.78 mg/L
